Strand notation (5' to 3'): a small letter for the sugar, then the base; units joined by * are phosphorothioate-linked, units joined directly phosphodiester-linked; [ ] holds rarer units or linkages, { } end groups; capitals alone tell only the bases. [ms] = mesyl phosphoramidate linkage; e = 2'-O-(2-methoxyethyl) (MOE); [5mC] = 5-methylcytosine; d = 2'-deoxy (DNA)
Tested on: human APOE RNA
Test: Activity in APOE C57BL/6NTac-Apoeem7250 knock-in mice, single ICV bolus, 16 weeks (Example 12)
Assay type: in vivo
Conditions: single ICV bolus 300 μg, 16 weeks post treatment, normalized to mouse Ppia
Experimental: Modified oligonucleotides described above were tested in the APOE C57BL/6NTac-Apoeem7250 knock-in mouse model described above.
APOE C57BL/6NTac-Apoeem7250 knock-in mice were divided into groups of 3-4 mice each. Each mouse received a single intracerebroventricular (ICV) bolus of 300 μg of modified oligonucleotide. A group of 4 mice received a single ICV bolus with PBS as a negative control.
Sixteen weeks post treatment, mice were sacrificed and RNA was extracted from cortical brain tissue and spinal cord for quantitative real-time RT-PCR analysis of RNA expression of APOE using primer probe set RTS3073 (described herein above). APOE RNA levels were normalized to mouse Ppia. Mouse Ppia was amplified using primer probe set m_cyclo24 (described herein above). Results are presented as percent human APOE RNA relative to the amount of human APOE RNA in PBS treated animals, (% control). Each experiment is identified in separate tables below.

Substance | APOE RNA (% control) Cortex [% control] | APOE RNA (% control) Spinal Cord [% control]
1693139: 6-10-4 MOE gapmer ACTTGGTGAATCTTTATTAA, linkages ssssssszzzssssszsss (eA*e[5mC]*eT*eT*eG*eG*dT*dG[ms]dA[ms]dA[ms]dT*d[5mC]*dT*dT*dT*dA[ms]eT*eT*eA*eA) [compound 1693139] | 92 | 97
1693067: 5-10-5 MOE gapmer ACTTGGTGAATCTTTATTAA, linkages ssosssszzzszsssssss (antisense eA*e[5mC]*eTeT*eG*dG*dT*dG[ms]dA[ms]dA[ms]dT*d[5mC][ms]dT*dT*dT*eA*eT*eT*eA*eA) [compound 1693067] | 97 | 162
1693140: 6-10-4 MOE gapmer ACTTGGTGAATCTTTATTAA, linkages sssssoszzzssssszoss (eA*e[5mC]*eT*eT*eG*eGdT*dG[ms]dA[ms]dA[ms]dT*d[5mC]*dT*dT*dT*dA[ms]eTeT*eA*eA) [compound 1693140] | 109 | 68
1693056: 5-10-5 MOE gapmer TTGGTGAATCTTTATTAAAC, linkages ssosszzzssssszsosss (antisense eT*eT*eGeG*eT*dG[ms]dA[ms]dA[ms]dT*d[5mC]*dT*dT*dT*dA[ms]dT*eTeA*eA*eA*e[5mC]) [compound 1693056] | 105 | 118
1693143: 6-10-4 MOE gapmer ACTTGGTGAATCTTTATTAA, linkages ssossszzzssssszsss (as printed) (sugars from the 5' end e6 d10 e4, all C 5-methyl, backbone not given here; further chemistry not fully specified) [compound 1693143] | 76 | 64
1693060: 5-10-5 MOE gapmer TTGGTGAATCTTTATTAAAC, linkages ssssszzzsssszzsosss (antisense eT*eT*eG*eG*eT*dG[ms]dA[ms]dA[ms]dT*d[5mC]*dT*dT*dT[ms]dA[ms]dT*eTeA*eA*eA*e[5mC]) [compound 1693060] | 93 | 93
1693074: 5-10-5 MOE gapmer ACTTGGTGAATCTTTATTAA, linkages ssosssszzzzzsssssss (eA*e[5mC]*eTeT*eG*dG*dT*dG[ms]dA[ms]dA[ms]dT[ms]d[5mC][ms]dT*dT*dT*eA*eT*eT*eA*eA) [compound 1693074] | 84 | 71
1693063: 5-10-5 MOE gapmer TTGGTGAATCTTTATTAAAC, linkages ssssszzzsssszzsssss (antisense eT*eT*eG*eG*eT*dG[ms]dA[ms]dA[ms]dT*d[5mC]*dT*dT*dT[ms]dA[ms]dT*eT*eA*eA*eA*e[5mC]) [compound 1693063] | 97 | 87
1693103: 6-10-4 MOE gapmer CTTGGTGAATCTTTATTAAA, linkages sssosszzzssssszssss (e[5mC]*eT*eT*eGeG*eT*dG[ms]dA[ms]dA[ms]dT*d[5mC]*dT*dT*dT*dA[ms]dT*eT*eA*eA*eA) [compound 1693103] | 84 | 56
1693078: 6-10-4 MOE gapmer TTGGTGAATCTTTATTAAAC, linkages ssossszzszssszssoss (eT*eT*eGeG*eT*eG*dA[ms]dA[ms]dT*d[5mC][ms]dT*dT*dT*dA[ms]dT*dT*eAeA*eA*e[5mC]) [compound 1693078] | 98 | 99
1693142: 6-10-4 MOE gapmer ACTTGGTGAATCTTTATTAA, linkages sssoosszzzssssszsss (eA*e[5mC]*eT*eTeGeG*dT*dG[ms]dA[ms]dA[ms]dT*d[5mC]*dT*dT*dT*dA[ms]eT*eT*eA*eA) [compound 1693142] | 98 | 92
1693104: 6-10-4 MOE gapmer CTTGGTGAATCTTTATTAAA, linkages ssossszzzssssszssss (e[5mC]*eT*eTeG*eG*eT*dG[ms]dA[ms]dA[ms]dT*d[5mC]*dT*dT*dT*dA[ms]dT*eT*eA*eA*eA) [compound 1693104] | 129 | 52
1693072: 5-10-5 MOE gapmer ACTTGGTGAATCTTTATTAA, linkages ssssosszzzzzsssssss (eA*e[5mC]*eT*eT*eGdG*dT*dG[ms]dA[ms]dA[ms]dT[ms]d[5mC][ms]dT*dT*dT*eA*eT*eT*eA*eA) [compound 1693072] | 82 | 61
1693064: 5-10-5 MOE gapmer ACTTGGTGAATCTTTATTAA, linkages soossssszzsssssosss (antisense eA*e[5mC]eTeT*eG*dG*dT*dG*dA[ms]dA[ms]dT*d[5mC]*dT*dT*dT*eAeT*eT*eA*eA) [compound 1693064] | 83 | 48
1693110: 6-10-4 MOE gapmer CTTGGTGAATCTTTATTAAA, linkages sssssszzzsssszzssss (e[5mC]*eT*eT*eG*eG*eT*dG[ms]dA[ms]dA[ms]dT*d[5mC]*dT*dT*dT[ms]dA[ms]dT*eT*eA*eA*eA) [compound 1693110] | 113 | 92
1693106: 6-10-4 MOE gapmer CTTGGTGAATCTTTATTAAA, linkages sssssszzzssssszssss (e[5mC]*eT*eT*eG*eG*eT*dG[ms]dA[ms]dA[ms]dT*d[5mC]*dT*dT*dT*dA[ms]dT*eT*eA*eA*eA) [compound 1693106] | 78 | 71
1693065: 5-10-5 MOE gapmer ACTTGGTGAATCTTTATTAA, linkages soossssszzsssssssss (antisense eA*e[5mC]eTeT*eG*dG*dT*dG*dA[ms]dA[ms]dT*d[5mC]*dT*dT*dT*eA*eT*eT*eA*eA) [compound 1693065] | 82 | 46
1693073: 5-10-5 MOE gapmer ACTTGGTGAATCTTTATTAA, linkages sssossszzzzzsssssss (eA*e[5mC]*eT*eTeG*dG*dT*dG[ms]dA[ms]dA[ms]dT[ms]d[5mC][ms]dT*dT*dT*eA*eT*eT*eA*eA) [compound 1693073] | 107 | 52

Reference: patent US20250353873A1, “COMPOUNDS AND METHODS FOR MODULATING APOE EXPRESSION” (Ionis Pharmaceuticals, Inc., priority 2024, published 2025)
